Assay: xn = mol fraction of the nth substance listed
Conditions: Liquid; for speed of sound: Frequency=3 MHz, Pulse-echo method; for mass density: Vibrating tube method

CCOC(F)(C(F)(F)C(F)(F)C(F)(F)F)C(F)(C(F)(F)F)C(F)(F)F (stereo not given) [2-trifluoromethyl-3-ethoxydodecafluorohexane] + CC(C)OC(C)C
Conditions	mass density, x1 = 0.25 [kg/m3]	mass density, x1 = 0.375 [kg/m3]	mass density, x1 = 0.5 [kg/m3]	mass density, x1 = 0.625 [kg/m3]	mass density, x1 = 0.75 [kg/m3]	speed of sound, x1 = 0.25 [m/s]	speed of sound, x1 = 0.375 [m/s]	speed of sound, x1 = 0.5 [m/s]	speed of sound, x1 = 0.625 [m/s]	speed of sound, x1 = 0.75 [m/s]
293.15 K, 100 kPa	1053.2	1178.3	1289.5	1391.2	1478.4	802	756.1	719.2	701.5	686.9
293.15 K, 10000 kPa	1071	1197.9	1310.6	1413.6	1501.4	–	–	–	–	–
293.15 K, 20000 kPa	1086.1	1214.9	1328.9	1432.8	1521.4	930.1	879	839	818.1	799.8
293.15 K, 30000 kPa	1099.4	1229.8	1344.9	1449.9	1539	–	–	–	–	–
293.15 K, 40000 kPa	1111.2	1243.1	1359.3	1465.1	1554.8	1029.9	975.3	933	909.4	888.3
293.15 K, 50000 kPa	1122.1	1255.2	1372.4	1479	1569.2	–	–	–	–	–
293.15 K, 60000 kPa	1132.1	1266.3	1384.4	1491.7	1582.4	1113.8	1056.9	1012.2	988	963.7
293.15 K, 70000 kPa	1141.5	1276.8	1395.6	1503.7	1594.8	–	–	–	–	–
293.15 K, 80000 kPa	1150.2	1286.4	1406.1	1514.7	1606.3	1187.2	1127.9	1081.1	1056.3	1029.1
293.15 K, 90000 kPa	1158.4	1295.5	1416	1525.1	1617.1	–	–	–	–	–
293.15 K, 100000 kPa	1166.2	1304.3	1425.3	1535	1627.3	1254	1190.8	1143	1116.9	1088.5
293.15 K, 110000 kPa	1173.5	1312.4	1434.1	1544.3	1637.1	–	–	–	–	–
293.15 K, 120000 kPa	1180.7	1320.3	1442.6	1553.2	1646.4	–	–	–	–	–
293.15 K, 130000 kPa	1187.4	1327.8	1450.7	1561.8	1655.3	–	–	–	–	–
293.15 K, 140000 kPa	1193.8	1335.1	1458.3	1569.9	1663.8	–	–	–	–	–
303.15 K, 100 kPa	1038.3	1161.8	1271.6	1372.4	1458.7	763.8	–	687.9	670.9	656
303.15 K, 10000 kPa	1057.2	1183	1294.5	1396.6	1483.7	–	–	–	–	–
303.15 K, 20000 kPa	1073.6	1201.2	1314.1	1417.3	1505.1	898.1	848.7	812.7	793.7	773.5
303.15 K, 30000 kPa	1087.7	1217	1331.1	1435.3	1523.8	–	–	–	–	–
303.15 K, 40000 kPa	1100.3	1231.1	1346.3	1451.3	1540.4	1001.7	948.6	909.1	889.5	864.7
303.15 K, 50000 kPa	1111.7	1243.8	1360	1465.8	1555.5	–	–	–	–	–
303.15 K, 60000 kPa	1122.1	1255.4	1372.6	1479.2	1569.3	1089.1	1032.1	989.8	969.5	941.8
303.15 K, 70000 kPa	1131.8	1266.2	1384.2	1491.4	1582.1	–	–	–	–	–
303.15 K, 80000 kPa	1140.8	1276.1	1395.1	1502.8	1594	1164.4	1104	1059.8	–	1008.7
303.15 K, 90000 kPa	1149.3	1285.5	1405.2	1513.6	1605.2	–	–	–	–	–
303.15 K, 100000 kPa	1157.3	1294.3	1414.8	1523.7	1615.8	1231.9	1170.1	1123	1101.7	1068.1
303.15 K, 110000 kPa	1164.9	1302.8	1423.9	1533.3	1625.8	–	–	–	–	–
303.15 K, 120000 kPa	1172.1	1310.8	1432.6	1542.4	1635.3	–	–	–	–	–
303.15 K, 130000 kPa	1178.8	1318.4	1440.8	1551.2	1644.4	–	–	–	–	–
303.15 K, 140000 kPa	1185.4	1325.9	1448.7	1559.5	1653.1	–	–	–	–	–
313.15 K, 100 kPa	1022.4	1144.5	1253.4	1351.8	1438.4	729.6	–	656.3	641.2	626.5
313.15 K, 10000 kPa	1042.9	1167.7	1278.3	1378.1	1465.4	–	–	–	–	–
313.15 K, 20000 kPa	1060.3	1187.2	1299.2	1400.1	1488.1	870.2	821.7	786.8	769.5	749.4
313.15 K, 30000 kPa	1075.3	1203.9	1317.2	1419.2	1507.8	–	–	–	–	–
313.15 K, 40000 kPa	1088.5	1218.6	1333.1	1436	1525.3	975.8	924.1	885.6	866.8	843.3
313.15 K, 50000 kPa	1100.5	1232	1347.4	1451.1	1541	–	–	–	–	–
313.15 K, 60000 kPa	1111.4	1244.1	1360.5	1464.9	1555.4	1065.1	1009.2	967.9	946.8	921.7
313.15 K, 70000 kPa	1121.5	1255	1372.6	1477.7	1568.7	–	–	–	–	–
313.15 K, 80000 kPa	1130.9	1265.4	1383.8	1489.6	1581.1	1141.4	1082.8	1039.3	1017.4	990.1
313.15 K, 90000 kPa	1139.7	1275.3	1394.3	1500.7	1592.6	–	–	–	–	–
313.15 K, 100000 kPa	1148	1284.4	1404.2	1511.1	1603.5	1209.6	1148.8	1102.9	1079.9	1050.9
313.15 K, 110000 kPa	1156	1293.2	1413.7	1521.2	1614	–	–	–	–	–
313.15 K, 120000 kPa	1163.3	1301.3	1422.4	1530.6	1623.6	–	–	–	–	–
313.15 K, 130000 kPa	1170.4	1309.4	1431	1539.5	1633	–	–	–	–	–
313.15 K, 140000 kPa	1177.2	1316.8	1439	1548.1	1641.9	–	–	–	–	–
323.15 K, 100 kPa	1006.7	1127.2	1235	1332.2	1418.1	693.3	650	624.3	609.9	597.4
323.15 K, 10000 kPa	1029	1152.3	1262	1360.8	1447.4	–	–	–	–	–
323.15 K, 20000 kPa	1047.5	1173	1284.2	1384.2	1471.7	841.6	794.7	761.3	745.2	726.1
323.15 K, 30000 kPa	1063.3	1190.5	1303.2	1404.3	1492.5	–	–	–	–	–
323.15 K, 40000 kPa	1077.2	1206.1	1319.9	1421.9	1510.7	952.5	901	862.9	846.1	822.8
323.15 K, 50000 kPa	1089.7	1220	1334.9	1437.6	1527.2	–	–	–	–	–
323.15 K, 60000 kPa	1101	1232.6	1348.5	1452	1542.2	1043.6	987.7	946.9	927.8	902.5
323.15 K, 70000 kPa	1111.5	1244.2	1361	1465.1	1555.9	–	–	–	–	–
323.15 K, 80000 kPa	1121.1	1255	1372.5	1477.3	1568.7	1123.2	1063	1019.6	998.6	971.8
323.15 K, 90000 kPa	1130.2	1265.1	1383.4	1488.8	1580.6	–	–	–	–	–
323.15 K, 100000 kPa	1138.8	1274.5	1393.7	1499.6	1591.9	1193.8	1129.2	1084.4	1061.6	1033.7
323.15 K, 110000 kPa	1146.9	1283.5	1403.2	1509.8	1602.5	–	–	–	–	–
323.15 K, 120000 kPa	1154.5	1291.9	1412.4	1519.5	1612.5	–	–	–	–	–
323.15 K, 130000 kPa	1161.7	1299.9	1421.1	1528.7	1622.1	–	–	–	–	–
323.15 K, 140000 kPa	1168.7	1307.7	1429.4	1537.4	1631.3	–	–	–	–	–
333.15 K, 100 kPa	990.5	1109.5	1216.5	1312.3	1397.5	659.8	617.9	593.4	579.9	568.6
333.15 K, 10000 kPa	1014.9	1137	1245.9	1343.3	1429.3	–	–	–	–	–
333.15 K, 20000 kPa	1034.7	1159.2	1269.8	1368.5	1455.3	816	769.7	737.4	720.8	703.1
333.15 K, 30000 kPa	1051.5	1177.9	1290	1389.8	1477.3	–	–	–	–	–
333.15 K, 40000 kPa	1066.2	1194.2	1307.5	1408.4	1496.6	930.9	878.9	842	823.8	802.8
333.15 K, 50000 kPa	1079.3	1208.8	1323.2	1424.9	1513.8	–	–	–	–	–
333.15 K, 60000 kPa	1091.1	1222	1337.3	1439.9	1529.4	1024.9	968.2	927.8	907.5	884.3
333.15 K, 70000 kPa	1101.9	1234	1350.3	1453.7	1543.7	–	–	–	–	–
333.15 K, 80000 kPa	1112	1244.9	1362.3	1466.4	1556.9	1106.8	1044.5	1001.6	980	954.4
333.15 K, 90000 kPa	1121.4	1255.4	1373.5	1478.4	1569.3	–	–	–	–	–
333.15 K, 100000 kPa	1130.3	1265.1	1384	1489.4	–	–	1111.7	1067.2	1043.9	1016.8

Reference: the NIST ThermoML archive (doi:10.1016/j.jct.2018.08.005)
